From BindingDB's records for doi:10.1021/jm960078j (University of Arizona, 1996)

assay: Binding affinity towards Opioid receptor delta 1 was determined in guinea pig whole brain using [3H][4''-Cl-Phe4]-DPDPE as radioligand

With `CCCC[C@@H](C(=O)N[C@@H](CC(=O)O)C(=O)N[C@@H](Cc1ccccc1)C(N)=O)N(C)C(=O)[C@@H](NC(=O)CNC(=O)[C@@H](Cc1ccccc1)NC(=O)[C@H](Cc1ccc(O)cc1)NC(=O)[C@@H](N)CC(=O)O)[C@@H](C)c1c[nH]c2ccccc12` as the compound, how does the IC50 read?
Its IC50 is 140 nM.

With `CCCC[C@@H](C(=O)N[C@@H](CC(=O)O)C(=O)N[C@@H](Cc1ccccc1)C(N)=O)N(C)C(=O)[C@H](NC(=O)CNC(=O)[C@@H](Cc1ccccc1)NC(=O)[C@H](Cc1ccc(O)cc1)NC(=O)[C@@H](N)CC(=O)O)[C@@H](C)c1c[nH]c2ccccc12` as the compound, how does the IC50 read?
Its IC50 is 1050 nM.

With `CCCC[C@@H](C(=O)N[C@@H](CC(=O)O)C(=O)N[C@@H](Cc1ccccc1)C(N)=O)N(C)C(=O)[C@H](NC(=O)CNC(=O)[C@@H](Cc1ccccc1)NC(=O)[C@H](Cc1ccc(O)cc1)NC(=O)[C@@H](N)CC(=O)O)[C@H](C)c1c[nH]c2ccccc12` as the compound, how does the IC50 read?
The IC50 was 820 nM.

With `CCCC[C@@H](C(=O)N[C@@H](CC(=O)O)C(=O)N[C@@H](Cc1ccccc1)C(N)=O)N(C)C(=O)[C@H](Cc1c[nH]c2ccccc12)NC(=O)CNC(=O)[C@@H](Cc1ccccc1)NC(=O)[C@H](Cc1ccc(O)cc1)NC(=O)[C@@H](N)CC(=O)O` [(3S)-3-[(2S)-2-[(2S)-2-{2-[(2R)-2-[(2S)-2-[(3S)-3-amino-3-formamidopropanoic acid]-3-(4-hydroxyphenyl)propanamido]-3-phenylpropanamido]acetamido}-3-(1H-indol-3-yl)-N-methylpropanamido]hexanamido]-3-{[(1S)-1-carbamoyl-2-phenylethyl]carbamoyl}propanoic acid] as the compound, how does the IC50 read?
The IC50 was 29 nM.
